Assays:
BRD2 BD1 = biological target: T1, BRD2 BD1 (Homo sapiens, UniProt P25440); experiment: Binding assay, BRD2 BD1 to acetylated histone H4 Peptide-Biotin (EPIgeneous Binding Domain Kit A); conditions: test compound at 300 nmol/L; read-out: Binding inhibition percentage BRD2 BD1
T1 construct: BRD2 BD1, BRD3 BD1 and BRD4 BD1 (Cisbio); purchased Cisbio
Method: (§1) BRD2 BD1, BRD3 BD1 and BRD4 BD1 (Cisbio), [Lys(Ac)5/8/12/16]-Histone H4(1-25)-GSGSK (Biotin) (hereinafter referred to as “Peptide-Biotin,” AnaSpec), and EPIgeneous (registered trademark) Binding Domain Kit A (Cisbio) were used to carry out an assay. That is to say, per well, 4 μL of BRD2 BD1, BRD3 BD1 or BRD4 BD1, which was adjusted to 20 nmol/L with Diluent buffer; 4 μL of 25 nmol/L Peptide-Biotin; 2 μL of Dilution buffer (Cisbio) containing dimethyl sulfoxide (DMSO) or a test compound that was serially diluted with DMSO; 5 μL of 2.5 nmol/L Streptavidin-d2; and 5 μL of Anti-Gst-Eu+^3+ Cryptate Conjugate 50-fold diluted with Detection Buffer were added to a 384-well plate (Corning).
(§2) The obtained mixture was left at rest at room temperature for 20 hours, and thereafter, the fluoresence intensity at 665 nm and 620 nm was measured using Envision plate reader (Perkin Elmer), so that the inhibition percentage (%) of the test compound against the binding of a bromodomain in a bromodomain-containing protein to Peptide-Biotin was calculated. Binding inhibition percentage (%)=[1−{(fluorescence intensity at 665 nm of test compound−added well)/(fluorescence intensity at 620 nm of test compound−added well)}/{(fluorescence intensity at 665 nm of DMSO−added well)/(fluorescence intensity at 665 nm of DMSO−added well)}]×100
(§3) Moreover, using Graphpad prism 5 (GraphPad software), 50% inhibitory concentration [IC50 (nmol/L)] was calculated according to a non-linear regression analysis (log (inhibitor) vs. response—Variable slope (four parameters)).
(§4) Regarding other test compounds, each compound was diluted with DMSO to a final concentration of 300 nmol/L by the same method as that described above, and the binding inhibition percentage (%) of each test compound at 300 nmol/L against the binding of bromodomain in a bromodomain-containing protein to acetylated histone was calculated.

BRD4 BD1 = biological target: T2, BRD4 BD1 (Homo sapiens, UniProt O60885); experiment: Binding assay, BRD4 BD1 to acetylated histone H4 Peptide-Biotin (EPIgeneous Binding Domain Kit A); conditions: test compound at 300 nmol/L; read-out: Binding inhibition percentage BRD4 BD1
T2 construct: BRD2 BD1, BRD3 BD1 and BRD4 BD1 (Cisbio); purchased Cisbio
Method: as §1, §2, §3, §4

BRD3 BD1 = biological target: T3, BRD3 BD1 (Homo sapiens, UniProt Q15059); experiment: Binding assay, BRD3 BD1 to acetylated histone H4 Peptide-Biotin (EPIgeneous Binding Domain Kit A); conditions: test compound at 300 nmol/L; read-out: Binding inhibition percentage BRD3 BD1
T3 construct: BRD2 BD1, BRD3 BD1 and BRD4 BD1 (Cisbio); purchased Cisbio
Method: as §1, §2, §3, §4

BRD3 BD2 = biological target: T4, BRD3 BD2 (Homo sapiens, UniProt Q15059); experiment: Binding assay, BRD3 BD2 to acetylated histone H4 Peptide-Biotin (EPIgeneous Binding Domain Kit B); conditions: test compound at 300 nmol/L; read-out: Binding inhibition percentage BRD3 BD2
T4 construct: BRD2 BD2, BRD3 BD2 and BRD4 BD2 (Cisbio); purchased Cisbio
Method: (§5) Moreover, BRD2 BD2, BRD3 BD2 and BRD4 BD2 (Cisbio), Peptide-Biotin (AnaSpec), and EPIgeneous (registered trademark) Binding Domain Kit B (Cisbio) were used to carry out an assay. That is, per well, 4 μL of BRD2 BD2, BRD3 BD2 or BRD4 BD2, which was adjusted to 20 nmol/L with Diluent buffer; 4 μL of 250 nmol/L Peptide-Biotin; 2 μL of Dilution buffer (Cisbio) containing DMSO or a test compound that was serially diluted with DMSO; 5 μL of 25 nmol/L Streptavidin-XL665; 5 μL of Anti-Gst-Eu+^3+ Cryptate Conjugate 50-fold diluted with Detection Buffer were added to a 384-well plate (Corning).
as §2, §3, §4

BRD4 BD2 = biological target: T5, BRD4 BD2 (Homo sapiens, UniProt O60885); experiment: Binding assay, BRD4 BD2 to acetylated histone H4 Peptide-Biotin (EPIgeneous Binding Domain Kit B); conditions: test compound at 300 nmol/L; read-out: Binding inhibition percentage BRD4 BD2
T5 construct: BRD2 BD2, BRD3 BD2 and BRD4 BD2 (Cisbio); purchased Cisbio
Method: as §5, §2, §3, §4

BRD2 BD2 = biological target: T6, BRD2 BD2 (Homo sapiens, UniProt P25440); experiment: Binding assay, BRD2 BD2 to acetylated histone H4 Peptide-Biotin (EPIgeneous Binding Domain Kit B); conditions: test compound at 300 nmol/L; read-out: Binding inhibition percentage BRD2 BD2
T6 construct: BRD2 BD2, BRD3 BD2 and BRD4 BD2 (Cisbio); purchased Cisbio
Method: as §5, §2, §3, §4

T4 sequence (Q15059 306-415 limits assumed): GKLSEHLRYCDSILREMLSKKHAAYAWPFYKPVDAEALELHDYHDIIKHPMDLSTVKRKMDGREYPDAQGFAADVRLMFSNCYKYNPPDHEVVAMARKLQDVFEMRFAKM
T6 sequence (P25440 344-453 limits assumed): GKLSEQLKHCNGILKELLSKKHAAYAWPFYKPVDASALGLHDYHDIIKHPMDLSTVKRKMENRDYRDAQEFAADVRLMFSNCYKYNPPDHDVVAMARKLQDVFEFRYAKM
T1 sequence (P25440 74-180 limits assumed): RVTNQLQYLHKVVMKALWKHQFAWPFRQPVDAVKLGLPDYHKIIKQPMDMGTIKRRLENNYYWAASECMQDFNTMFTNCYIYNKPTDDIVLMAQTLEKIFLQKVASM
T3 sequence (Q15059 34-140 limits assumed): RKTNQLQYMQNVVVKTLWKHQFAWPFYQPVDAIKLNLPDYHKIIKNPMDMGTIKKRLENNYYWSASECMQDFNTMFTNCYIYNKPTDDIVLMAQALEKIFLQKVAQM

Row | SMILES | inhibition at 0.3 µM (BRD2 BD1) [%] | inhibition at 0.3 µM (BRD4 BD1) [%] | inhibition at 0.3 µM (BRD3 BD1) [%] | inhibition at 0.3 µM (BRD3 BD2) [%] | inhibition at 0.3 µM (BRD4 BD2) [%] | inhibition at 0.3 µM (BRD2 BD2) [%]
1 | CCn1c(=O)cc(N2CCOCC2)c2cc(-n3c(-c4ccccc4)cn(CCO)c3=O)ccc21 [Example 262, 1-ethyl-6-(3-(2-hydroxyethyl)-2-oxo-5-phenyl-2,3-dihydro-1H-imidazol-1-yl)-4-(morpholin-4-yl)quinolin-2(1H)-one] | 87 | 94 | 94 | 92 | 88 | 89
2 | CCCCn1cc(-c2ccccc2)n(-c2ccc3c(c2)c(N2CCOCC2)cc(=O)n3CC)c1=O [Example 264, 6-(3-butyl-2-oxo-5-phenyl-2,3-dihydro-1H-imidazol-1-yl)-1-ethyl-4-(morpholin-4-yl)quinolin-2(1H)-one] | 92 | 95 | 94 | 91 | 88 | 88
3 | CCCn1cc(-c2ccccc2)n(-c2ccc3c(c2)c(N2CCOCC2)cc(=O)n3CC)c1=O [Example 265, 1-ethyl-4-(morpholin-4-yl)-6-(2-oxo-5-phenyl-3-propyl-2,3-dihydro-1H-imidazol-1-yl)quinolin-2(1H)-one] | 91 | 94 | 95 | 92 | 87 | 89
4 | CCn1cc(-c2ccccc2)n(-c2ccc3c(c2)c(N2CCOCC2)cc(=O)n3CC)c1=O [Example 266, 1-ethyl-6-(3-ethyl-2-oxo-5-phenyl-2,3-dihydro-1H-imidazol-1-yl)-4-(morpholin-4-yl)quinolin-2(1H)-one] | 91 | 93 | 94 | 91 | 88 | 90
5 | CCn1c(=O)cc(C2CC2)c2cc(-n3c(-c4ccc(C(F)(F)F)cc4)cn(C)c3=O)ccc21 [Example 267, 4-cyclopropyl-1-ethyl-6-(3-methyl-2-oxo-5-(4-(trifluoromethyl)phenyl)-2,3-dihydro-1H-imidazol-1-yl)quinolin-2(1H)-one] | 32 | 68 | 53 | 90 | 87 | 87
6 | CCn1c(=O)cc(C2CC2)c2cc(-n3c(-c4ccc(C(F)(F)F)cc4)c[nH]c3=O)ccc21 [Example 268, 4-cyclopropyl-1-ethyl-6-(2-oxo-5-(4-(trifluoromethyl)phenyl)-2,3-dihydro-1H-imidazol-1-yl)quinolin-2(1H)-one] | 48 | 73 | 62 | 92 | 87 | 86
7 | CCn1c(=O)cc(C2CC2)c2cc(-n3c(-c4ccc(Cl)cc4)cn(C)c3=O)ccc21 [Example 269, 6-(5-(4-chlorophenyl)-3-methyl-2-oxo-2,3-dihydro-1H-imidazol-1-yl)-4-cyclopropyl-1-ethylquinolin-2(1H)-one] | 36 | 71 | 58 | 92 | 87 | 85
8 | CCn1c(=O)cc(N2CCOCC2)c2cc(-n3c(-c4ccc(C(F)(F)F)cc4)cn(C)c3=O)ccc21 [Example 270, 1-ethyl-6-(3-methyl-2-oxo-5-(4-(trifluoromethyl)phenyl)-2,3-dihydro-1H-imidazol-1-yl)-4-(morpholin-4-yl)quinolin-2(1H)-one] | 87 | 94 | 94 | 91 | 89 | 89

From patent US10987349B2, “Antitumor agent and bromodomain inhibitor” (FUJIFILM Corporation, priority 2016, dated 2021)
